Assay results as given in patent publication EP0385663B1, “Heterocyclic cycloalkanes as inhibitors of 5-lipoxygenase” (ZENECA LIMITED, priority 1989, dated 1990).

How the values were obtained:
cyclooxygenase = biological target: T1, cyclooxygenase (Homo sapiens, UniProt P23219); assay: Test b): heparinised human blood challenged with A23187, TxB₂ radioimmunoassay; format: cell-based; conditions: read-out: IC₅₀ (TxB₂)
T1 construct: incubating a test compound with heparinised human blood; endogenous in cells; host or cells: blood cells (platelets) in heparinised human whole blood
T1 sequence (P23219 24-599): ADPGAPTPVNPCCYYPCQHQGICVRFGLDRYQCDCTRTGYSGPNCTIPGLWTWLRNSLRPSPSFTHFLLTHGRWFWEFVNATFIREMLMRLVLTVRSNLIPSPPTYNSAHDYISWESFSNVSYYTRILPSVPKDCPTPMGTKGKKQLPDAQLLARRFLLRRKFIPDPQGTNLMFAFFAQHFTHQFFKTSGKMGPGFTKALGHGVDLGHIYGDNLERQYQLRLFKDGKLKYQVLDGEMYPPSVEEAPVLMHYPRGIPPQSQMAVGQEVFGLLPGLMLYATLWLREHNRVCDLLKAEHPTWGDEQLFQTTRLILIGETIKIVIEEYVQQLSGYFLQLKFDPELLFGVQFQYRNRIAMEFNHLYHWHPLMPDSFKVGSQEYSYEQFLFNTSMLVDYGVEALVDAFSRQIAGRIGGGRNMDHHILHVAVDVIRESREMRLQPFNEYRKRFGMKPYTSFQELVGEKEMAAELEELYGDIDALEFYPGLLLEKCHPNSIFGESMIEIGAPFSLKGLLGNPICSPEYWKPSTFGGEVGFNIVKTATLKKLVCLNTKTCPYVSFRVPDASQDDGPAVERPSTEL
Experimental: (§1) As stated previously, the heterocyclic cycloalkanes of the formula I are inhibitors of the enzyme 5-LO. […] This test provides a measure of the intrinsic inhibitory properties against soluble 5-LO in an extracellular environment. • b) An in vitro assay system involving incubating a test compound with heparinised human blood, prior to challenge with the calcium ionophore A23187 and then indirectly measuring the inhibitory effects on 5-LO by assaying the amount of LTB₄ using the specific radioimmunoassay described by Carey and Forder (F. Carey and R.A. Forder, Brit. […] The effects of a test compound on the enzyme cyclooxygenase (which is involved in the alternative metabolic pathway for arachidonic acid and gives rise to prostaglandins, thromboxanes and related metabolites) may be measured at the same time using the specific radioimmunoassay for thromboxane B₂(TxB₂) described by Carey and Forder (see above). […] It permits the selectivity of the inhibitory effect on 5-LO or cyclooxygenase to be assessed. • c) An ex vivo assay system, which is a variation of test b) above, involving administration of a test compound (usually orally as the suspension produced when a solution of the test compound in dimethylsulphoxide is added to carboxymethylcellulose), blood collection, heparinisation, challenge with A23187 and radioimmunoassay of LTB₄ and TxB₂. […]

5-LO = assay: Test c): ex vivo assay, compound administered, blood collected, A23187 challenge, LTB₄ radioimmunoassay; format: in vivo
Experimental: as §1

Compound: CO[C@@H]1CCC[C@]1(OC)c1cccc(OCC#Cc2ccccn2)c1 (relative stereo) [Example 2, trans-1,2-dimethoxy-1-[3-(3-(2-pyridyl)prop-2-yn-1-yloxy)phenyl]cyclopentane]
- IC50 (cyclooxygenase): > 40 µM
- oral ED₅₀(LTB₄) (5-LO): < 100 mg/kg
